Experimental data: US5854240A, “Methylene blue for the treatment or prophylaxis of encephalopathy caused by ifosfamide” (Newcastle University Ventures Limited, priority 1993, dated 1998)
Several values for one entry are separate records, joined by “and”; a condition that tells them apart may be missing. Identical values can stand only once. Entries after “also recorded” stand apart in the source; their conditions may differ.

Experiments:
small cell lung cancer = assay: Tumour response to chemotherapy, small cell lung cancer patients; format: in vivo, human
Excerpt: (§1) They received six cycles of ifosfamide treatment using the identical dosage requirements as in Example 4.
(§2) A patient was diagnosed with extensive small cell lung cancer with pleural effusion. Patient was prescribed ifosfamide/Vp-16/methylene blue treatment.

[1] = GCMS analysis of urine of patient receiving ifosfamide and methylene blue; format: in vivo, human
Description: 100 ml of urine from a patient having had received methylene blue (300 mg/day) and ifosfamide (3 mg/kg daily) was analysed. The urine was refluxed for 30 minutes with 2M hydrochloric acid in ethanol (50 ml). After sufficient heating, 50 mls each of H2 O and […] hexane were added, the mixture shaken. The organic phase was then reduced to dryness in vacuo on a rotary evaporator. The dry residue was reconstituted in 1M hexane (10 ml) and 1 μl aliquots were submitted to gas chromatography-mass spectrometry analysis (GCMS). A 16 meter OV-17 capillary column was used with a temperature programme set for 40° C. for 1 minute, 5° C. per minute gradient to 250° C. and 250° C. for 10 minutes. Electron impact mass spectra were obtained on the resulting chromatographic peaks of interest (See A, B, and C of FIG. 1). These peaks were analysed through a Fisons Autospec Q MASS LIB GCMS computer library of mass spectra developed by the Department of Organic Chemistry, University of Berne, Switzerland of known organic compounds (FIGS. 2-4).

[2] = CNS toxicity/encephalopathy in patients on ifosfamide without methylene blue; format: in vivo, human
Description: (§3) A patient diagnosed with advanced metastatic osteosarcoma began a five day chemotherapy regime. Treatment consisted of a total dosage of 12 g/m^2 ifosfamide with 80% (by weight, based on the weight of ifosfamide) mesna and adriamycin (65 mg/m^2) divided into two doses. They also received ZOFRAN™ brand ondansetron (antiemetic), 8 mg, by intravenous injection and 200 mg pyritinol three times per day orally. All parenteral medicaments were given in a total of 2 liters 5% glucose solution.
(§4) In 1990, a patient with metastatic leiomyosarcoma was treated for lung metastases with ifosfamide, adriamycin and dacarbazine. They had three cycles of therapy at the time.
(§5) In the second and third cycles, their dose of ifosfamide was 2 g/m^2 for three days.
(§6) At the request of the inventors, an independent clinical analysis was performed at the Northern Centre for Cancer Treatment, Newcastle Upon Tyne, United Kingdom, on a patient using a combintation of ifosfamide and methylene blue. A patient was diagnosed with adenocarcinoma of the oesophagus. They began chemotherapeutic treatment and was administered ifosfamide, Mitomycin C, and cisplatin. […] The patient eventually recovered. Upon administration of a third cycle of treatment, the patient was also given a prophylactic dosage of methylene blue.

[3] = tested on: metastatic leiomyosarcoma; assay: Tumour response to chemotherapy, leiomyosarcoma patient; format: in vivo, human; settings: Example 3; 1990, ifosfamide, adriamycin and dacarbazine, three cycles
Description: as §4, §5

[4] = Nitrobenzyl pyridine (NBP) test of urine for alkylating metabolites of ifosfamide; format: in vivo, human
[5] = intravenous ifosfamide; Martindale, 28th Edition, 1982; cited from earlier work
[6] = tested on: non small cell lung cancer; assay: Tumour response to chemotherapy, non small cell lung cancer patients; format: in vivo, human; settings: Example 4; ifosfamide, VP-16, methylene blue; four cycles
Description: (§7) A patient was diagnosed with non small cell lung cancer. They later developed brain, lung and mediastinal and bone metastases. The course of treatment included surgery, irradiation of the brain and chemotherapy. Dosage amounts for chemotherapy were as follows: ifosfamide (1 g/m^2) given intravenously for days 1-3; mesna 60% of intravenous ifosfamide dosage plus 800 mg orally twice daily for days 1-3; VP-16 (100 mg) given orally for days 1-8 and methylene blue (50 mg) was administered orally as a loading dose on day 1, with 3×50 mg administered orally on days 1-4.
(§8) A patient was diagnosed with non small cell lung cancer with extensive mediastinal lymphnode metastases. They were originally prescribed a course of cisplatinum, VP-16 and velbe. […] Oral ifosfamide, VP-16, and methylene blue was then ordered, using the same dosage requirements as described in Example 4 above.

metastatic osteosarcoma = assay: Tumour response to chemotherapy, osteosarcoma patient; format: in vivo, human; settings: Example 2; ifosfamide/adriamycin chemotherapy with methylene blue prophylaxis
Description: as §3
(§9) After three weeks from the end of the first cycle, the patient who was the subject of Example 1 again was given the same chemotherapeutic regime, except that this time they received 50 mg oral capsules of methylene blue prophylactically three times a day for the full course of treatment.

[7] = Prophylaxis of ifosfamide encephalopathy with methylene blue in patients; format: in vivo, human
Description: as §9
With the following treatment, they received four 50 mg doses of oral methylene blue. Their cytotoxic chemotherapy comprised three 3.2 g doses of ifosfamide (6 g/m^2 total dose) split over 3 days. The ifosfamide was administered as a continuous infusion with mesna. They also received 50 mg/m^2 adriamycin in two separate doses on days 2 and 3. Additionally,they received pyritinol (200 mg) twice per day on each day of the four day treatment.
as §7, §1, §8
A patient with non small cell lung cancer with involvment of the thoracic wall and retroperitoneal disease began one cycle of ifosfamide/methylene blue chemotherapy.
as §2, §6

[8] = Therapeutic rescue of ifosfamide encephalopathy with methylene blue in a patient; format: in vivo, human; settings: Example 1
Description: as §3
50 mg methylene blue, formulated at 2% w/v in water for injections, was administered by slow intravenous injection.
About 4 hours later, the 50 mg methylene blue dose was repeated to consolidate the earlier treatment.

plasma amine oxidase = assay: Inhibition of plasma amine oxidase (2-chlorethylamine oxidation to chloracetaldehyde, GC); format: biochemical; settings: methylene blue 50 μM; 2-chlorethylamine 100 μg/ml; human or bovine plasma, 36° C., 1 hour
Description: Human or bovine plasma (2.0 ml) containing 2-chlorethylamine (100 μg/ml) was incubated in a shaking water bath at 36° C. for 1 hour. Aliquots (5 μl) were directly injected in to a Tenax packed gas chromatographic column maintained at 120° C. in a Perkin Elmer 3920B gas chromatograph. The product of 2-chlorethylamine oxidation by plasma amine oxidase, 2-chloracetaldehyde, was eluted at 9 minutes retention time. External calibration curves were used to determine concentrations of resulting chloracetaldehyde. […] The methylene blue is thus able to reduce the formation of chloracetaldehyde from 2-chlorethylamine by the plasma to 20% of that observed in the absence of methylene blue.

[9] = Urinary excretion of pyritinol and its metabolites in patients; format: in vivo, human
Excerpt: It is believed that pyritinol elevates intracellular thiol concentrations thereby detoxifying the chloroethyl metabolites formed by ifosfamide. Pyritinol is metabolised by reduction of its centralised disulfide bond, presumably by glutathione reductase or a similar enzyme using GSH as its cofactor. Pyritinol is also known to be metabolised by S-methylation and S-oxidation into the following metabolites: [drawing 12] These metabolites are the excretable forms of pyritinol in urine. In patients not receiving ifosfamide treatment, virtually 100% of pyritinol will be excreted in its metabolised form into the urine. […] As was previously mentioned, without GSH as a cofactor, glutathione reductase is unable to reduce pyritinol into its metabolised form. It is therefore a further aspect of this invention to use the excretion of unmetabolised pyritinol as a biochemical marker for the onset of encephalopathy upon administration of ifosfamide.

[10] = Example 5, ifosfamide as in Example 4, six cycles
[11] = Example 3, ifosfamide + methylene blue, first cycle

O=P1(NCCCl)OCCCN1CCCl (stereo not drawn) [ifosfamide, N,3-bis(2-chloroethyl)tetrahydro-2H-1,3,2-oxazaphosphorin-2-amine 2-oxide]
Lambert/Eaton Syndrome (small cell lung cancer; [10]): rapidly improved | remission (small cell lung cancer; [10]): good partial remission | remission (small cell lung cancer; Example 8, ifosfamide/Vp-16/methylene blue, after six cycles): partial remission of the lung, lymphnode and liver metastases | remission (small cell lung cancer; Example 8, ifosfamide/Vp-16/methylene blue, after three cycles): partial remission in the primary and lymphnode metastases | urinary metabolites identified by GCMS ([1]; Example 10, methylene blue 300 mg/day and ifosfamide 3 mg/kg daily, urine refluxed with HCl in ethanol): 2,2,2-trichlorethanal and 3-chloroproprionic acid ethyl ester and trichloracetic acid ethyl ester | novel urinary metabolites among patients treated with ifosfamide and methylene blue ([1]; patients treated with both ifosfamide and methylene blue): 2,2,2-trichlorethanol and trichloracetic acid and 3-chlorproprionic acid | signs of encephalopathy on ifosfamide ([2]; Example 1, 12 g/m^2 total ifosfamide, mesna, adriamycin, day three and next morning, before methylene blue): displayed signs of encephalopathy-type hallucinations; also recorded: still drowsy, disorientated and confused | encephalopathy on ifosfamide ([2]; Example 3, 1990, first cycle, ifosfamide, adriamycin and dacarbazine): mild encephalopatic signs (such as confusion and amnesia) short of psychosis | encephalopathy on ifosfamide ([2]; Example 3, 1990, second cycle, ifosfamide 2 g/m^2 for three days): psychotic and somnolent | encephalopathy on ifosfamide ([2]; Example 3, 1990, third cycle, ifosfamide 2 g/m^2 for three days): severely psychotic and had hallucinations which continued not only after the end of the cycle but also after discharge from hospital | encephalopathy on ifosfamide ([2]; Example 9, ifosfamide, Mitomycin C and cisplatin, following second cycle): developed ifosfamide encephalopathy, becoming drowsy and confused | remission [3]: complete remission of the lung metastases | NBP test of urine for alkylating metabolites of ifosfamide ([4]; Example 1, first cycle): positive | NBP test of urine for alkylating metabolites ([4]; Example 2, second cycle, with methylene blue): present | patients experiencing CNS side effects, especially confusion and lethargy [5]: about 10% | outcome [6]: died 6 months later due to tumour progression | lung metastases (lung scan) (metastatic osteosarcoma): lung metastases were almost gone

CN(C)c1ccc2nc3ccc(N(C)C)cc3[s+]c2c1.[Cl-] [methylene blue, 3,7-bis(dimethylamino)phenothiazin-5-ium chloride]
disturbed nights during treatment ([7]; Example 2, 50 mg oral capsules three times a day prophylactically): no disturbed nights | symptoms of encephalopathy during prophylactic treatment ([7]; Example 3, four 50 mg oral doses, ifosfamide 6 g/m^2 total over 3 days, mesna, adriamycin, pyritinol, first cycle): no symptoms of encephalopathy were recorded during treatment | episodes of vomiting [7, 11]: one | malaise [7, 11]: no malaise | signs of encephalopathy during prophylactic treatment ([7]; Example 4, 50 mg oral loading dose day 1, 3×50 mg oral days 1-4, four cycles): No signs of encephalopathy after four cycles | signs of encephalopathy during prophylactic treatment ([7]; Example 5, dosage as in Example 4, six cycles): no signs of encephalopathy | signs of encephalopathy during prophylactic treatment ([7]; Example 6, oral ifosfamide, VP-16 and methylene blue, dosage as in Example 4, six cycles): Absolutely no signs of encephalopathy | CNS toxicity during prophylactic treatment ([7]; Example 7, dosage as in Example 4, one cycle): No CNS toxicity was exhibited | symptoms associated with encephalopathy during prophylactic treatment ([7]; Example 8, dosage as in Examples 4-7, six cycles): never developed the symptoms associated with encephalopathy | signs of encephalopathy during prophylactic treatment ([7]; Example 9, prophylactic methylene blue in third cycle, ifosfamide, Mitomycin C, cisplatin): no further signs of encephalopathy | patient's condition during prophylactic treatment ([7]; Example 9, third cycle): remained conscious and alert throughout treatment | symptoms of encephalopathy next day ([8]; 50 mg dose repeated about 4 hours later, next day): no signs of confusion or other symptoms of encephalopathy | malaise and nausea after methylene blue ([8]; 50 mg slow intravenous injection, after 1 hour): The malaise and nausea which they had previously experienced were gone | patient's condition after methylene blue ([8]; 50 mg slow intravenous injection, after 1 hour, continued ifosfamide infusion): much calmer, coherent and able to articulate the fearful nature of their hallucinations | sleep/condition after repeated dose ([8]; second 50 mg dose, that night and next day): slept well and was much better the next day | formation of chloracetaldehyde from 2-chlorethylamine by the plasma, relative to that in absence of methylene blue (plasma amine oxidase): 20% | inhibition of plasma amine oxidase by methylene blue (plasma amine oxidase): 80%

Cc1ncc(CSSCc2cnc(C)c(O)c2CO)c(CO)c1O [pyritinol]
form of pyritinol excreted in urine upon addition of methylene blue ([9]; ifosfamide plus methylene blue, leucomethylene blue or similar compound): metabolised forms of pyritinol will subsequently be excreted in the urine | form of pyritinol excreted in urine upon ifosfamide ([9]; upon administration of ifosfamide): solely in its unmetabolised non-reduced form
